In assay [1] the target is T1, Opioid receptors; mu/kappa/delta (Homo sapiens) (UniProt P41145+P41143+P35372). Nature of the assay: The IC50 value of agonist (DADLE) in presence of antagonist (Compound 20 nM) divided by the control […] value with no antagonist in MVD (mouse vas deferens). In kind it is functional. Particulars: Cavia porcellus.
Assay [2] has as its target T1, Opioid receptors; mu/kappa/delta (Homo sapiens). Nature of the assay: The IC50 value of agonist (ethylketazocine) in presence of antagonist (Compound 20 nM) divided by the control […] value with no antagonist in GPI (Guinea pig ileum). In kind it is functional, tissue-based. The settings on record: Cavia porcellus, target entry is the homologue from another species.

Assay [3] has the same target. Description: The IC50 value of agonist (morphine) in presence of antagonist (Compound 20 nM) divided by the control […] value with no antagonist in GPI (Guinea pig ileum). The settings on record: Cavia porcellus, target entry is the homologue from another species. In kind it is functional, tissue-based.

T1 sequence (P35372 whole entry, looked up): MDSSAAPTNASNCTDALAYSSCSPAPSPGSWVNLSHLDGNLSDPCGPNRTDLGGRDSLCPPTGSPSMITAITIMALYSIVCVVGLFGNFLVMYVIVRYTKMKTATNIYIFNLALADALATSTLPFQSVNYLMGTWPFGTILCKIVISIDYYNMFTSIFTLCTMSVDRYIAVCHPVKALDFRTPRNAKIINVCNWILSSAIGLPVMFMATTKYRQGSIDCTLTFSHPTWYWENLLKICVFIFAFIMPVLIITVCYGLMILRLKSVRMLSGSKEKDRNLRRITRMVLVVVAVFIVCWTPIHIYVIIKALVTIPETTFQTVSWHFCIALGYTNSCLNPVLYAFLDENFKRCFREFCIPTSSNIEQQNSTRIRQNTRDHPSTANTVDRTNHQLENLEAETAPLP
T1 sequence (P41143 whole entry, looked up): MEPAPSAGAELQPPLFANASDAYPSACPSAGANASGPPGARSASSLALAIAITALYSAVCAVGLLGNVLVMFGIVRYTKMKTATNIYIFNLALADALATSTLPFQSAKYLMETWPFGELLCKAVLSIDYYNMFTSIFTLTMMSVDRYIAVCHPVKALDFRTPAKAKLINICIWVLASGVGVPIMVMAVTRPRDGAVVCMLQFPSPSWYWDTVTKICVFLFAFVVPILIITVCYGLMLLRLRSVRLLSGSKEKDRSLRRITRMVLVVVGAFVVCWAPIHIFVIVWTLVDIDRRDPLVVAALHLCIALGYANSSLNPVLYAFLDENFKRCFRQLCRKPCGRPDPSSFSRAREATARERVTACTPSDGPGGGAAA
T1 sequence (P41145 whole entry, looked up): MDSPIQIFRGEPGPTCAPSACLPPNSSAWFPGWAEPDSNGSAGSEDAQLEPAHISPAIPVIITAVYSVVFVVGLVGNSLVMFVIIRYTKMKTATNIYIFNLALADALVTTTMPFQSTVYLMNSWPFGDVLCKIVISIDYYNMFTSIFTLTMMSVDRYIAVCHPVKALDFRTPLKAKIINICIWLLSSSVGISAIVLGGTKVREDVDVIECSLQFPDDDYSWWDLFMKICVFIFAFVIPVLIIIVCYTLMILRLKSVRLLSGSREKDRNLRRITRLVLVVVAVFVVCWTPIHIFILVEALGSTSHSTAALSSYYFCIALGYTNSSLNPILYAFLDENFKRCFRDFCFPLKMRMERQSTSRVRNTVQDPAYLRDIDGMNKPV

As to `Oc1ccc2c3c1O[C@@H]1c4[nH]c5c(c4CC4(O)[C@@H](C2)N(CC2CC2)CC[C@]314)CC1(O)[C@H]2Cc3ccc(O)c4c3[C@]1(CCN2CC1CC1)[C@H]5O4` (stereo partly specified), the Ratio was 2 in assay [1], 50.4 in assay [2] and 1.6 in assay [3].
On the same counts, the results for `Cn1c2c(c3c1[C@@H]1Oc4c(O)ccc5c4[C@@]14CCN(CC1CC1)[C@H](C5)C4(O)C3)CC1(O)[C@H]3Cc4ccc(O)c5c4[C@@]1(CCN3CC1CC1)[C@H]2O5` (stereo partly specified) are 4.5, 128 and 5.4.

For the origin of these results see ChEMBL document CHEMBL1123576.
